From US12714094B2, “Cryoprotectant polymers and methods of making and using thereof” (BOARD OF REGENTS, THE UNIVERSITY OF TEXAS SYSTEM, priority 2019, dated 2026)
“Also recorded” adds a separate entry of the source.

Assay: Differential scanning calorimetry of polymer/water and polymer/PBS solutions (ice formation, Tg, phase behavior)
Format: physicochemical
Conditions: 50 wt % aqueous solution
Description: Differential Scanning calorimetry (DSC). DSC was used to determine the Tg of pure polymer and aqueous polymer solutions. PMGS is hygroscopic, so PMGS batches were dried in vacuo for at least four hours prior to sample preparation. Polymer solutions were made by mixing dry PMGS with phosphate buffer solution (PBS) and hand-mixing until a homogeneous solution was achieved. DSC samples were prepared by loading TZero pans with at least 5 mg of each solution and sealing them with hermetic lids to prevent evaporation. DSC samples of pure polymer were typically scanned from −20 to 120° C. four times, and the Tg was determined from the last heating cycle. DSC samples of polymer solutions were cooled to −90 and heated to 20° C., and the Tg was determined on the heating cycle.
Differential scanning calorimetry. For PMGS/water mixtures, 6-8 mg of solution was placed in an aluminum DSC pan. The samples were cooled at 1° C./min to −90° C., held at −90° C. for 1 minute, then heated to 20° C. at 10° C./min. For neat PMGS, the polymer was dried overnight under vacuum, then the polymer was removed from the vacuum and 5-10 mg was immediately transferred to an aluminum DSC pan. The sample was heated to 150° C. at 10° C./min, held for 1 min, then cooled to −10° C. at 10° C./min and held for 1 min. […]

C[S+](C)[O-] [DMSO, dimethyl sulfoxide]
ice formation (in words): No ice formed; also recorded: enough to arrest ice formation in solution
